Experimental data: patent publication US20260015387A1, “MITOCHONDRIAL ANTIOXIDANT PEPTIDES” (priority 2022, published 2026)
Where two headings read alike, the source gives them in different places. Square brackets hold non-standard residues; d marks the D form. Dmt = Cc1cc(O)cc(C)c1C[C@H](N)C(=O)O

Legend:
[1] = DPPH antioxidant activity (radical quenching); conditions: compared to the SS-31 peptide (FIG. 3)
Method: Experiments were performed to determine DPPH antioxidant activity. Radical concentration of DPPH was determined after reacting with varying concentrations of peptide. DPPH is an organic radical with a peak ABS at 525 nm.

[2] = Hydroxyl radical scavenging measured by EPR; conditions: DMPO trap, compared to the SS-31 peptide (FIG. 7)
Method: Hydroxyl radical scavenging activity of peptides measured by electron paramagnetic resonance (EPR). Hydroxyl radical was generated by a reaction of 0.8 mM FeSO4, with 0.8-mM H2O2, pH 7.0 (250 μL). The hydroxyl radicals were trapped with 5,5-dimethyl-1-pyrroline-N-oxide (DMPO) prior to obtaining spectra.

16HBE41o-cells = type: cell-based; conditions: for Protection against HOCl-mediated cell death: cells treated with 200 μM HOCl, MTT assay
Method: 16HBE41o-cells were treated with 200 μM of HOCl for 60 min in PBS with or without increasing concentrations of peptides. Cells were washed and then placed back in media and cell viability was assess at 24 hours using the MTT assay. % Protection was determined by normalizing data to cell viability with and without oxidant.
An HOCl protection assay using 16HBE41o-cells was performed. This assay measured protection against cell death using HOCl as the oxidant. RH8=2TH peptide and RH9=His peptide. […] For this assay, 16HBE41o-cells were treated with 200 μM of HOCl for 60 minutes in PBS with or without increasing concentrations of test compounds. Cells were washed and then placed back in media and cell viability was assess at 24 hours using the MTT assay. % Protection was determined by normalizing data to cell viability with and without oxidant. Data curves were generated using Prism 8 software (GraphPad) for 50% effective concentration (EC50) determinations and their respective 95% confidence intervals.

cardiolipin = test: Cardiolipin binding assay (cytochrome c reduction by ascorbate); conditions: compared to SS31 (FIG. 18)
Text: Cardiolipin binds to cytochrome c, preventing it from being reduced by ascorbate. When the peptide binds cardiolipin, cytochrome c is free to be reduced by ascorbate.

[3] = test system: Human HMESO malignant mesothelioma cells; test: ROS glow assay (cellular H2O2 levels); type: cell-based; conditions: 250 mM peptide, 50 μM menadione, 4 hours; compared to the SS-31 peptide (FIG. 8)
Method: An ROS glow assay was also performed. The assay measures the levels of H2O2 after injury to the cell. Human HMESO malignant mesothelioma cells were incubated with […] of WT, 2-TH or His compound with the addition 50 μM menadione and the H2O2 substrate for 4 hours (in duplicate). The reaction was quenched with addition of the H2O2 detection substrate. Luminescence levels were measured in a plate reader after 30 minutes of incubation.

[4] = In vitro antioxidant capacity studies; conditions: in vitro data
Text: Various in vitro antioxidant capacity studies and some cell-based protection assays have been performed. […] This is especially true for HOCl-mediated injury as illustrated in FIG. 9.

[5] = after global ischemia; cited from earlier work
[6] = test system: cellular reactive oxygen species; conditions: ROS caused by 1-butyl hydroperoxide; cited from earlier work
[7] = ABTS radical quenching assay; conditions: FIGS. 4-6
Method: ABTS assays were also performed. ABTS is a radical cation that is blue in color and absorbs light at 734 nm. 7 mM AzBTS was mixed in water with 2.45 mM potassium persulfate and left 16 hrs in the dark at rt to oxidize. […] The ABTS solution was diluted to an absorbance of ˜0.7 at 734 nm. Samples were assayed with ABTS: 990 μL ABTS solution+10 μL sample. Stocks of peptides were made with concentrations in the range of 0.1 mM to 3.2 mM. This assay may be a better choice than DPPH if there is less steric hindrance. FIGS. 4-6 show the results of these experiments.

Compound | Scavenging of the DPPH radical [1] | Scavenging of the hydroxyl radical [2] | EC50 (16HBE41o-cells; cells treated with 200 μM HOCl for 60 min in PBS, viability at 24 hours, MTT, read-out: EC50 of protection against HOCl-mediated cell death) [µM] | Protection against HOCl-mediated cell death (16HBE41o-cells) | Binding to cardiolipin (CL) (cardiolipin) | Cellular levels of H2O2 [3] | Antioxidant activity (overall comparison) [4] | Protection against HOCl-mediated cell death (16HBE41o-cells; listed as WT peptide) | Prevention of reperfusion-associated myocardial stunning [5] | Scavenging of cellular reactive oxygen species [6] | Quenching of the ABTS radical [7]
N=C(N)NCCC[C@@H](N)C(=O)N[C@@H](Cc1c[nH]c(=S)[nH]1)C(=O)N[C@@H](CCCCN)C(=O)N[C@@H](Cc1ccccc1)C(N)=O [RH8] | better at scavenging the DPPH radical | better at scavenging | 50 | protects strongly | binds to CL equally well as SS31 | significantly lower compared to the SS-31 peptide | significantly better antioxidant than the SS-31 peptide | – | – | – | –
H-[dR][Dmt]KF-NH2 [SS-31] | – | – | – | did not protect against HOCl-mediated injury at all | – | – | – | did not show any protection | prevented reperfusion-associated myocardial stunning | scavenged cellular reactive oxygen species | quenches the ABTS radical better
